Assay results reported in patent US20120269799A1, “DIAGNOSTIC AND TREATMENT METHODS USING A LIGAND LIBRARY” (priority 2011, published 2012).

Tested on: anti-DNP antibody
Experiment: Competition between free ethanolamine-DNP and DNP on a plate
Format: binding
Details: 1,000 ug/mL sera concentration
Protocol: The Mean fluorescence intensity (MFI) separation was greatest at the higher dilution of 1,000 ug/mL sera.

For O=[N+]([O-])c1ccc(NCCO)c([N+](=O)[O-])c1 [ethanolamine-DNP], the “competition with the binding of DNP (on a plate) to anti-DNP antibody” value was “direct competition”.
